Assay results reported in patent publication US8957024B2, “Composition and methods for reducing opioid-induced pruritus” (priority 2011, dated 2015).
“Also recorded” adds a separate entry of the source.

Tests used:
mice [1] = conditions: mouse, in vivo
Myc-GRPR = target: T1, Myc-GRPR (Mus musculus, UniProt P21729); test: Receptor internalization assay (ELISA, immunofluorescence staining) in HEK 293 cells: GRPR; assay type: cell-based; conditions: agonist 1 μM, 30 min
T1 construct: expressed in transfected cells
T1 sequence (P21729 whole entry): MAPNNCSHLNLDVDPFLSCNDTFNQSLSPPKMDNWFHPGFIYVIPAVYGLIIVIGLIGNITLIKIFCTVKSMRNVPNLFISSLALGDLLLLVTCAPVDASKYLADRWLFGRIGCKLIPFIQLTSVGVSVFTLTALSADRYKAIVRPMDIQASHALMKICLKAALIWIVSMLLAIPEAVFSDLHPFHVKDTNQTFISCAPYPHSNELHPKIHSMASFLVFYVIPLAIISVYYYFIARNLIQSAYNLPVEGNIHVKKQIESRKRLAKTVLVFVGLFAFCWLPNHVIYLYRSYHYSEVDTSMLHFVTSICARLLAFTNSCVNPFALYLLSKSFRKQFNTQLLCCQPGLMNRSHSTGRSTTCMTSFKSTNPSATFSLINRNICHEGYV

HA-MOR1 = target: T2, HA-MOR1 (Mus musculus, UniProt P42866); test: Receptor internalization assay (ELISA, immunofluorescence staining) in HEK 293 cells: MOR1; assay type: cell-based; conditions: HEK 293 cells expressing MOR1 only, or MOR1 and GRPR; agonist 1 μM
T2 construct: expressed in transfected cells

HA-MOR1D = target: T3, HA-MOR1D (Mus musculus, UniProt P42866); test: Receptor internalization assay (ELISA, immunofluorescence staining) in HEK 293 cells: MOR1D; assay type: cell-based; conditions: HEK 293 cells expressing MOR1D, or MOR1D and GRPR; agonist 1 μM
T3 construct: expressed in transfected cells

mice [2] = conditions: mouse, in vivo; remark: listed apart in the source
mice [3] = test: Von Frey assay, naive mice and CFA inflammatory pain model; assay type: in vivo, mouse
Protocol: In CFA induced inflammatory pain, mice received an injection of CFA (20 μl, Sigma) into the plantar of the right hindpaw. Mechanical sensitivity was assessed using von Frey assay.
Mechanical sensitivity was assessed using a set of calibrated von Frey filaments (Stoelting). Each filament was applied 5 consecutive times and the smallest filament that evoked reflexive flinches of the paw on 3 of the 5 trials was taken as paw withdrawal threshold.

[4] = system: HEK 293 cells containing only GRPR; test: Calcium imaging, cells containing only GRPR; assay type: cell-based, mouse
[5] = system: HEK 293 cells expressing MOR1D alone; test: Calcium imaging, cells expressing MOR1D alone; assay type: cell-based, mouse
mice [6] = test: Gastrin-releasing peptide induced scratching (GIS); assay type: in vivo, mouse
MOR1 mRNA = test: qRT-PCR after i.t. siRNA: MOR1 mRNA; assay type: in vivo, mouse; conditions: spinal cord
Protocol: (§1) Selective siRNA duplexes for mouse Oprm exons, PLCβ1/3 and IP3R3 were intrathecally injected daily for 3 consecutive days. Behavior testing and tissue harvest were carried out at 48 hr after the last injection. RNA was dissolved in diethyl pyrocarbonate-treated PBS and prepared immediately prior to administration by mixing the RNA solution with a transfection reagent, ExGen 500 (Fermentas). The final concentration of RNA was 1.25 μg/5 μl. siRNA or ExGen 500 alone (defined as vehicle) in 5 μl was delivered to the lumbar region of the spinal cord. The injection was given daily for 3 consecutive days (Luo et al., 2005; Tan et al., 2009). Behavior testing and tissue harvest were carried out 48 hr after the last injection.
(§2) LCM were performed as previously described (van Baarlen et al., 2009) with minor modifications. Frozen sections (30 μm thickness) of the lumber spinal cord were cut at −20° C. and stored at −80° C. […]
(§3) RNA was isolated from the LCM sample caps using the PicoPure RNA isolation kit (Arcturus) following manufacturer's recommendations. […] Quantitative PCR amplification was performed in 96-well plates on an Mx3000 QPCR system (Stratagene). […]
(§4) Expression of target mRNA was normalized to expression of 18S rRNA. The differences in mRNA expression between treatments were analyzed using the Comparative CT Method (Gallup et al., 2005). […]

MOR1D mRNA = test: qRT-PCR after i.t. siRNA: MOR1D mRNA; assay type: in vivo, mouse; conditions: spinal cord
Protocol: as §1, §2, §3, §4

GRPR/MOR1D interaction = target: T4, GRPR/MOR1D interaction (Mus musculus, UniProt P21729); conditions: in vivo
T4 construct: co-IP analysis using the membrane extracts of the spinal cord injected with Tat-MOR1DCT and the vehicle; from tissue; host or cells: lumbar spinal cord membrane extract after intrathecal injection
T4 sequence (P21729 whole entry): as above

[7] = system: HEK 293 cells co-expressing MOR1 and GRPR; test: Calcium imaging, cells co-expressing MOR1 and GRPR; assay type: cell-based, mouse
[8] = HEK 293 cells expressing GRPR alone

Molecule: 2-APB
- effect on MIA (mice [1]): no effect on MIA

Molecule: C[C@@H](NC(=O)[C@@H](N)Cc1ccc(O)cc1)C(=O)NCC(=O)N(C)[C@@H](Cc1ccccc1)C(=O)NCCO [DAMGO]
- agonist-induced GRPR internalization (Myc-GRPR; [8]): cannot internalize GRPR
- agonist-induced MOR1 internalization (HA-MOR1): can be internalized
- agonist-induced MOR1D internalization (HA-MOR1D): can be internalized

Molecule: COc1ccc2c(c1)CC[C@@H]1[C@@H]2CC[C@]2(C)[C@@H](NCCCCCCN3C(=O)C=CC3=O)CC[C@@H]12 [U73122]
- effect on MIA (mice [1]): did not impact MIA; also recorded: not significantly affected

Molecule: COC(=O)/C=C/C(=O)N[C@@H]1CC[C@@]2(O)[C@H]3Cc4ccc(O)c5c4[C@@]2(CCN3CC2CC2)[C@H]1O5 [beta-FNA]
- effect on MIS (mice [2]): significantly blocked

Molecule: CN1CC[C@]23c4c5ccc(O)c4O[C@H]2[C@@H](O)C=C[C@H]3[C@H]1C5 [morphine]
- MIA enhancement when the morphine dose increased from 0.3 nmol to 1.0 nmol (mice [1]): 81%
- MIA in mice with acute morphine tolerance (mice [1]): significant reduction of MIA relative to the saline control
- MIA in mice with chronic morphine tolerance (mice [1]): significant reduction of MIA relative to the saline control; also recorded: showed antinociceptive tolerance
- MIA, dose effect of i.t. morphine (mice [1]): increased in a dose-dependent manner
- duration of MIA (mice [1]): maintained at a maximal level for at least one hr
- time after which no scratches were seen (mice [2]): 40 min
- time within which MIS increased dramatically (mice [2]): ≤ 10 min
- agonist-induced GRPR internalization (Myc-GRPR; HEK 293 cells co-expressing MOR1 and GRPR): failed to induce GRPR internalization; also recorded: when co-expressed with HA-MOR1D but not HA-MOR1
- agonist-induced GRPR internalization (Myc-GRPR; [8]): failed to induce GRPR internalization
- mechanical threshold in CFA-treated mice (mice [3]; i.t. morphine 0.3 nmol, 24 hr after intraplantar CFA): significantly increased mechanical threshold
- calcium response to agonist [4]: failed to evoke Ca2+ spikes
- calcium response to agonist [5]: neither morphine nor GRP generated a calcium response

Molecule: C=CCN1CC[C@]23c4c5ccc(O)c4O[C@H]2C(=O)CC[C@@]3(O)[C@H]1C5 [naloxone]
- effect on GIS (mice [6]; naloxone 3 mg/kg s.c.): did not change GIS; also recorded: not significantly affected

Molecule: AAACCCUGCAAGAGUUGCAuu (AAACCCUGCAAGAGUUGCAUU; chemistry not given here) [exon 7 siRNA, siRNA duplex for mouse Oprm exon 7]
- effect of siRNA knockdown on MIA (mice [1]): had no effect on MIA

Molecule: D-Phe-6-Bn(6-13)OMe [GRPR antagonist]
- effect of the agent itself on acute pain, tail immersion assay (mice [1]): no significant effect on acute pain; also recorded: did not significantly affect the acute pain
- effect on MIA (mice [1]): remained unchanged; also recorded: not significantly affected
- effect on analgesic effect of intrathecal morphine in CFA model (mice [3]; GRPR antagonist 1.0 nmol co-injection, morphine 0.3 nmol i.t.): not significantly affected
- effect of the agent itself on acute pain, von Frey (mice [3]; i.t., without morphine): no significant effect on acute pain; also recorded: did not significantly affect the acute pain

Molecule: UCUGGAAGCAGAAACUGCUuu (UCUGGAAGCAGAAACUGCUUU; chemistry not given here) [exon 4 siRNA, siRNA duplex for mouse Oprm exon 4]
- effect of siRNA knockdown on MIA (mice [1]): markedly attenuated MIA; also recorded: significantly reduced morphine analgesic effect
- spinal MOR1 mRNA level (MOR1 mRNA): selectively decreased; also recorded: significantly knocked down

Molecule: UGAGGAACCUUCUUCCUGAuu (UGAGGAACCUUCUUCCUGAUU; chemistry not given here) [exon 9 siRNA, siRNA duplex for mouse Oprm exon 9]
- effect of siRNA knockdown on MIA (mice [1]): had no effect on MIA
- spinal MOR1D mRNA level (MOR1D mRNA): significantly reduced
- effect of siRNA knockdown on GIS (mice [6]; mouse, in vivo): no significant reduction of GIS; also recorded: not affected

Molecule: YGRKKRRQRRRRNEEPSS [Tat-MOR1DCT]
- effect on MIA (mice [1]): unperturbed; also recorded: had no effect on MIA
- amount of GRPR precipitated by MOR1D antibody (GRPR/MOR1D interaction) (GRPR/MOR1D interaction): significantly reduced the amount of GRPR precipitated by MOR1D antibody; also recorded: markedly reduces co-immunoprecipitation of GRPR and MOR1D; also recorded: decreased GRPR/MOR1D interaction
- effect on GIS (mice [6]; mouse, in vivo): unperturbed; also recorded: without affecting GIS

Molecule: gastrin-releasing peptide [GRP]
- calcium response to agonist [7]: they responded to GRP
- agonist-induced MOR1 internalization (HA-MOR1): neither MOR1D nor MOR1 internalized
- agonist-induced MOR1D internalization (HA-MOR1D): neither MOR1D nor MOR1 internalized; also recorded: failed to cause MOR1D internalization
- GIS in MOR KO vs wild-type littermate mice (mice [6]; i.t. GRP): normal; also recorded: comparable
- calcium response to agonist [5]: neither morphine nor GRP generated a calcium response
